We go through one compound from CN110179802A (priority 2019, dated 2019).

For data set [1] the following is noted: in vivo; cited from earlier work.
Data set [2] has as its system agrA gene (agrA基因). Put plainly: Real-time PCR of agrA gene transcription in MRSA43300. Background: Quantitative PCR measures a nucleic acid by following its amplification.
The test system of data set [3] is HIa gene (HIa基因). The data set is described as follows: Real-time PCR of HIa gene transcription in MRSA43300.
The subject of data set [4] is Streptococcus pyogenes (酿脓链球菌). The settings on record: cited from earlier work.
Data set [5] concerns α-hemolysin (α-溶血素). It is filed as cell-based, Staphylococcus aureus (MRSA43300).
Data set [6] relates to Mycoplasma pneumonia (肺炎支原体). The note with it: cited from earlier work.
Data set [7] concerns haemolytic activity of MRSA43300 culture supernatant on rabbit erythrocytes (MRSA43300培养物上清对兔红细胞的溶血活性). Put plainly: Haemolytic activity of MRSA43300 culture supernatant on rabbit erythrocytes after co-culture at sub-inhibitory concentrations. Type of data set: cell-based, MRSA 43300 (Staphylococcus aureus); rabbit erythrocytes. The note with it: for inhibition rate of haemolysis: 16 h at 37℃ with MRSA43300, 543 nm.

Data set [8] has as its system Pyogeniccoccus (化脓链球菌). The note with it: cited from earlier work.
Data set [9] has as its system Staphylococcus aureus (金黄色葡萄球菌). The settings on record: cited from earlier work.
In data set [10] the test system is MRSA. The note with it: cited from earlier work.
For data set [11], the system named is MRSA43300. The data set is described as follows: Antibacterial activity against MRSA43300. Type of data set: cell-based, Staphylococcus aureus (MRSA43300).
[12] abbreviates: 1/2MIC, 1/4MIC, 1/8MIC, compared with control group.

On to `C=C[C@]1(C)C[C@@H](OC(=O)CSc2nc(N)cc(N)n2)[C@]2(C)[C@H](C)CC[C@]3(CCC(=O)[C@H]32)[C@@H](C)[C@@H]1O` [14-O-[(4,6-二氨基嘧啶-2-基)巯乙酰基]姆体林], for which the toxicity entry in [1] is on record as “毒性低”. In addition, the “agrA gene transcription level” value is recorded as “与对照组相比差异显著” in [2] (setting [12]), “没有明显的影响” in [2] (1/16MIC) and “不影响agrA的基因转录水平” in data set [2] (1/32MIC). Besides, the “HIa gene transcription level” value in data set [3] (setting [12]) was “与对照组相比差异极显著”; in [3] (1/16MIC, compared with control group), “与对照组相比差异显著”; in data set [3] (1/32MIC), “不影响HIa基因转录水平”. The antibacterial activity result is “良好的抑菌活性” in [4]; “良好的抑菌活性” in data set [6]; “良好的抑菌活性” in data set [8]; “良好的抑菌活性” in data set [9]; “良好的抑菌活性” in [10]; “较好抑菌活性” in [11]. Further, the “content of α-hemolysin in culture supernatant” value in data set [5] was “能减少培养物上清中的α-溶血素的含量,且呈明显的浓度依赖性”. Further, the “inhibition rate of haemolysis” value was determined as 97.24±1.15% in [7] (1/2MIC), 96.4±2.1% in data set [7] (1/4MIC) and 31.5±7.86% in data set [7] (1/16MIC). For the same compound, in [7] (sub-inhibitory concentrations, 1/2MIC to 1/32MIC), the “inhibition of haemolytic activity, concentration dependence” value is on record as “抑制能力随药物浓度的升高而增强”.
